Measured values published in patent US12157755B2, “CD73 inhibitor, preparation method therefor and application thereof” (Abbisko Therapeutics Co., Ltd., priority 2019, dated 2024).

Columns and labels:
[1] = target: T1, CD73 (Homo sapiens, UniProt P21589); test: In vitro enzymatic activity against CD73 (malachite green test using soluble CD73); format: biochemical; conditions: soluble CD73 36 ng/mL, 50 μM AMP, 30 minutes at 25° C.
T1 construct: purchased R&D systems 5795-EN-010
T1 sequence (P21589 27-547 limits assumed): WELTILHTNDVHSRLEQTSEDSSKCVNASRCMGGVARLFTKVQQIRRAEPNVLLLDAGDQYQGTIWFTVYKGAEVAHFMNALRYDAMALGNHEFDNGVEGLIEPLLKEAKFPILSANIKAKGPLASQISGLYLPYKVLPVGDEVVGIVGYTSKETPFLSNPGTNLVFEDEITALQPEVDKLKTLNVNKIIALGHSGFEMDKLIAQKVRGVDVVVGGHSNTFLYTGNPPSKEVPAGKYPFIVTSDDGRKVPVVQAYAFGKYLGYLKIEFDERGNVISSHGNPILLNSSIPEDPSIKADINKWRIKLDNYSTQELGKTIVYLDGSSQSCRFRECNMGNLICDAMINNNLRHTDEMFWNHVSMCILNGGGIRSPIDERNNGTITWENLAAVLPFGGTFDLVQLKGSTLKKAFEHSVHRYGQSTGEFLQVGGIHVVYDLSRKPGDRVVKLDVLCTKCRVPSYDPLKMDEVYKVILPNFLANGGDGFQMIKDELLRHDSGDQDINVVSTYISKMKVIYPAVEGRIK
Description: The malachite green test using soluble CD73, which is synthesized in vitro was used in the present invention to determine the characteristics of inhibitory activity of the compounds against CD73. The specific experimental procedures were as following:
1. The enzyme reaction in this experiment was carried out in 384-well plates, and CD73 (R&D systems #5795-EN-010) at a concentration of 36 ng/mL, the compounds at different concentrations and 50 μM AMP were incubated for 30 minutes at 25° C. in a 40 uL reaction system (consisting of 25 mM Tris pH 7.5, 5 mM MgCl2, and 0.005% Tween-20);
2. Then, 10 μL of malachite green solution (Sigma) was added to each well to terminate the reaction;
3. The concentration of resulting inorganic phosphate was determined according to the instructions of the reagent manufacturer;
4. The enzymatic activity of CD73 was calculated based on the concentration of the product, and then IC50 values were determined by non-linear regression analysis of the inhibition percentage of the compounds of the present invention at different concentrations.

[2] = target: T2, CD73 enzymatic activity expressed on the cell surface of MDA-MB-231 cells (Homo sapiens, UniProt P21589); test: Inhibition of CD73 enzymatic activity on the cell surface (Cell Titer Glo (CTG) experiment), MDA-MB-231 cells; format: cell-based; conditions: MDA-MB-231 cells endogenously expressing CD73, AMP, 37° C. for 2 hours, CTG readout; read-out: Cellular activity IC50
T2 construct: Human breast cancer cells MDA-MB-231 that endogenously express CD73 were used; host or cells: MDA-MB-231
T2 sequence (P21589 27-549): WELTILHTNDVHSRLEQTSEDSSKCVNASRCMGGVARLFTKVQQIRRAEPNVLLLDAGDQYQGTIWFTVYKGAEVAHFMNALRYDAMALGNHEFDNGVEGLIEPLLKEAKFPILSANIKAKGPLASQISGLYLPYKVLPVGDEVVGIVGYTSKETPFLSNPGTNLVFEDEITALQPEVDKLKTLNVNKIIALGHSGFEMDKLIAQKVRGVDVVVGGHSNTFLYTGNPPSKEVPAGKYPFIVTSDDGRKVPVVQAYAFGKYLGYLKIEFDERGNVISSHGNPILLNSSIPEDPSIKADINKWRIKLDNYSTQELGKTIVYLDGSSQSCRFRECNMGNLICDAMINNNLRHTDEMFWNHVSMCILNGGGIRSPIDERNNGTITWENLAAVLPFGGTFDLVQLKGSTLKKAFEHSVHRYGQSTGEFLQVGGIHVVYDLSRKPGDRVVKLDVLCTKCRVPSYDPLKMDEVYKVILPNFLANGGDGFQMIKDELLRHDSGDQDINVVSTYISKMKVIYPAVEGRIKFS
Description: Human breast cancer cells MDA-MB-231 that endogenously express CD73 were used in the present invention to evaluate the inhibition of the compound against the CD73 enzymatic activity expressed on the cell surface. The cells used were from the Cell Bank of the Chinese Academy of Sciences. The specific experimental procedures were as follows:
1. Before the test, MDA-MB231 cells were seeded to a 96-well plate at 20000 cells/well;
2. In RPMI1640, 10% fetal bovine serum (Gibco, 10099-141), placed in a 5% CO2 incubator at 37° C. overnight (the cells were washed three times by using a serum-free RPMI medium right before the test):
3. 50 μl of serum-free media containing the compounds at different concentrations were added to the cells and incubated for 15 minutes;
4. 25 μL of 1.2 mM AMP was added for incubation at 37° C. for 2 hours, 25 μL of supernatant was then collected from the cells and mix with 25 μL of 100 μM ATP, and then the concentration of AMP in the samples was determined by CTG (Promega, #G7573);
5. Then, a reduction ratio of the substrate AMP level in the cell culture supernatant collected after the reaction was quantitatively determined to evaluate the inhibitory effects of the examples of the present invention and the positive compounds against the CD73 enzymatic activity on the cell surface;
6. Finally, the concentration of the compound leading to half maximal inhibition of enzymatic activity (IC50) was determined using a four-parameter non-linear logistic model curve fit in Graphpad Prism.

IC50 [1] [pM] | IC50 [2] [pM] | Structure (SMILES)
260 | 260 | O=P(O)(O)CP(=O)(O)OC[C@H]1O[C@@H](n2ncc3c(N[C@H]4CCc5ccccc54)cc(Cl)nc32)[C@H](O)[C@@H]1O [Example 12, (((((2R,3S,4R,5R)-5-(6-chloro-4-(((S)-2,3-dihydro-1H-inden-1-yl)amino)-1H-pyrazolo[3,4-b]pyridin-1-yl)-3,4-dihydroxytetrahydrofuran-2-yl)methoxy)(hydroxy)phosphoryl)methyl)phosphonic acid]
420 | 130 | O=P(O)(O)CP(=O)(O)OC[C@H]1O[C@@H](n2ncc3c(N[C@@H]4CCc5ccccc54)cc(Cl)nc32)[C@H](O)[C@@H]1O [Example 13, (((((2R,3S,4R,5R)-5-(6-chloro-4-(((R)-2,3-dihydro-1H-inden-1-yl)amino)-1H-pyrazolo[3,4-b]pyridin-1-yl)-3,4-dihydroxytetrahydrofuran-2-yl)methoxy)(hydroxy)phosphoryl)methyl)phosphonic acid]
160 | 450 | CN(c1cc(Cl)nc2c1cnn2[C@@H]1O[C@H](COP(=O)(O)CP(=O)(O)O)[C@@H](O)[C@H]1O)[C@H]1CCc2ccccc21 [Example 14, (((((2R,3S,4R,5R)-5-(6-chloro-4-(((S)-2,3-dihydro-1H-inden-1-yl)(methyl)amino)-1H-pyrazolo[3,4-b]pyridin-1-yl)-3,4-dihydroxytetrahydrofuran-2-yl)methoxy)(hydroxy)phosphoryl)methyl)phosphonic acid]
970 | 121 | CN(c1cc(Cl)nc2c1cnn2[C@@H]1O[C@H](COP(=O)(O)CP(=O)(O)O)[C@@H](O)[C@H]1O)[C@@H]1CCc2ccccc21 [Example 15, (((((2R,3S,4R,5R)-5-(6-chloro-4-(((R)-2,3-dihydro-1H-inden-1-yl)(methyl)amino)-1H-pyrazolo[3,4-b]pyridin-1-yl)-3,4-dihydroxytetrahydrofuran-2-yl)methoxy)(hydroxy)phosphoryl)methyl)phosphonic acid]
340 | 176 | O=P(O)(O)CP(=O)(O)OC[C@H]1O[C@@H](n2ncc3c(N[C@@H]4CCc5cc(F)ccc54)cc(Cl)nc32)[C@H](O)[C@@H]1O [Example 16, (((((2R,3S,4R,5R)-5-(6-chloro-4-(((R)-5-fluoro-2,3-dihydro-1H-inden-1-yl)amino)-1H-pyrazolo[3,4-b]pyridin-1-yl)-3,4-dihydroxytetrahydrofuran-2-yl)methoxy)(hydroxy)phosphoryl)methyl)phosphonic acid]
320 | 140 | O=P(O)(O)CP(=O)(O)OC[C@H]1O[C@@H](n2ncc3c(N[C@@H]4CCc5ccc(F)cc54)cc(Cl)nc32)[C@H](O)[C@@H]1O [Example 17, (((((2R,3S,4R,5R)-5-(6-chloro-4-(((R)-6-fluoro-2,3-dihydro-1H-inden-1-yl)amino)-1H-pyrazolo[3,4-b]pyridin-1-yl)-3,4-dihydroxytetrahydrofuran-2-yl)methoxy)(hydroxy)phosphoryl)methyl)phosphonic acid]
1670 | 240 | O=P(O)(O)CP(=O)(O)OC[C@H]1O[C@@H](n2ncc3c(N[C@@H]4CCc5cc(Cl)ccc54)cc(Cl)nc32)[C@H](O)[C@@H]1O [Example 18, (((((2R,3S,4R,5R)-5-(6-chloro-4-(((R)-5-chloro-2,3-dihydro-1H-inden-1-yl)amino)-1H-pyrazolo[3,4-b]pyridin-1-yl)-3,4-dihydroxytetrahydrofuran-2-yl)methoxy)(hydroxy)phosphoryl)methyl)phosphonic acid]
11800 | 540 | O=P(O)(O)CP(=O)(O)OC[C@H]1O[C@@H](n2ncc3c(N[C@@H]4CCc5cc(C(F)(F)F)ccc54)cc(Cl)nc32)[C@H](O)[C@@H]1O [Example 19, (((((2R,3S,4R,5R)-5-(6-chloro-4-(((R)-5-(trifluoromethyl)-2,3-dihydro-1H-inden-1-yl)amino)-1H-pyrazolo[3,4-b]pyridin-1-yl)-3,4-dihydroxytetrahydrofuran-2-yl)methoxy)(hydroxy)phosphoryl)methyl)phosphonic acid]
710 | 270 | O=P(O)(O)CP(=O)(O)OC[C@H]1O[C@@H](n2ncc3c(N[C@@H]4CCc5ccc(C(F)(F)F)cc54)cc(Cl)nc32)[C@H](O)[C@@H]1O [Example 20, (((((2R,3S,4R,5R)-5-(6-chloro-4-(((R)-6-(trifluoromethyl)-2,3-dihydro-1H-inden-1-yl)amino)-1H-pyrazolo[3,4-b]pyridin-1-yl)-3,4-dihydroxytetrahydrofuran-2-yl)methoxy)(hydroxy)phosphoryl)methyl)phosphonic acid]
210 | 210 | O=P(O)(O)CP(=O)(O)OC[C@H]1O[C@@H](n2ncc3c(N[C@@H]4CCc5cc(F)cc(F)c54)cc(Cl)nc32)[C@H](O)[C@@H]1O [Example 21, (((((2R,3S,4R,5R)-5-(6-chloro-4-(((R)-5,7-difluoro-2,3-dihydro-1H-inden-1-yl)amino)-1H-pyrazolo[3,4-b]pyridin-1-yl)-3,4-dihydroxytetrahydrofuran-2-yl)methoxy)(hydroxy)phosphoryl)methyl)phosphonic acid]
260 | 151 | O=P(O)(O)CP(=O)(O)OC[C@H]1O[C@@H](n2ncc3c(N[C@@H]4CCc5cc(F)c(F)cc54)cc(Cl)nc32)[C@H](O)[C@@H]1O [Example 22, (((((2R,3S,4R,5R)-5-(6-chloro-4-(((R)-5,6-difluoro-2,3-dihydro-1H-inden-1-yl)amino)-1H-pyrazolo[3,4-b]pyridin-1-yl)-3,4-dihydroxytetrahydrofuran-2-yl)methoxy)(hydroxy)phosphoryl)methyl)phosphonic acid]
890 | 245 | Cc1cc(N[C@@H]2CCc3cc(F)cc(F)c32)c2cnn([C@@H]3O[C@H](COP(=O)(O)CP(=O)(O)O)[C@@H](O)[C@H]3O)c2n1 [Example 23, (((((2R,3S,4R,5R)-5-(4-(((R)-5,7-difluoro-2,3-dihydro-1H-inden-1-yl)amino)-6-methyl-1H-pyrazolo[3,4-b]pyridin-1-yl)-3,4-dihydroxytetrahydrofuran-2-yl)methoxy)(hydroxy)phosphoryl)methyl)phosphonic acid]
1260 | 256 | Cc1cc(N[C@@H]2CCc3cc(F)ccc32)c2cnn([C@@H]3O[C@H](COP(=O)(O)CP(=O)(O)O)[C@@H](O)[C@H]3O)c2n1 [Example 24, (((((2R,3S,4R,5R)-5-(4-(((R)-5-fluoro-2,3-dihydro-1H-inden-1-yl)amino)-6-methyl-1H-pyrazolo[3,4-b]pyridin-1-yl)-3,4-dihydroxytetrhydrofuran-2-yl)methoxy)(hydroxy)phosphoryl)methyl)phosphonic acid]
